Source: ChEMBL document CHEMBL1132959, “Design of potent dicyclic (1-5/4-10) gonadotropin releasing hormone (GnRH) antagonists” (J Med Chem, 2000)
One block for each compound: values may come before it. Bridge positions count the residues as written; N and C are the ends. Square brackets hold non-standard residues; d marks the D form. Peptide text beside a SMILES is read from it. dPhe(4-Cl) = N[C@H](Cc1ccc(Cl)cc1)C(=O)O; dPhe(4-F) = N[C@H](Cc1ccc(F)cc1)C(=O)O; d2Nal = N[C@H](Cc1ccc2ccccc2c1)C(=O)O; NMeL = CN[C@@H](CC(C)C)C(=O)O; ΔPro = O=C(O)[C@@H]1C=CCN1; Dap = NC[C@H](N)C(=O)O; βAla = NCCC(=O)O

Legend:
[1] = target: T1, Gonadotropin-releasing hormone receptor (Rattus norvegicus, UniProt P30969); assay: Affinity for rat gonadotrophin releasing hormone (GnRH) receptor using HEK293 cells transfected with rat Gonadotropin-releasing hormone receptor; format: cell-based; conditions: hek293
T1 sequence (P30969 whole entry): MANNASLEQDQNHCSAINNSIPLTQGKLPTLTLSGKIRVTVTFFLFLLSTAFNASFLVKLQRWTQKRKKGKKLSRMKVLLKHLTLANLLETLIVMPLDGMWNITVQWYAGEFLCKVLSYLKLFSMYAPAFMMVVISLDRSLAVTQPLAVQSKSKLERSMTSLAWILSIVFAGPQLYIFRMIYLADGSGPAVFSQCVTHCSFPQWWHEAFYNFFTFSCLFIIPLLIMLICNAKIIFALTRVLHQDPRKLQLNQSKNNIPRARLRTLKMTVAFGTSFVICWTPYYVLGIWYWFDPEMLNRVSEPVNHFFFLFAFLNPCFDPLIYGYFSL

[2] = species: Rattus norvegicus; assay: Antiovulatory potency at 100 ug/rat expressed as rats ovulating by total no. of rats (7/12); format: functional
[3] = species: Rattus norvegicus; assay: Antiovulatory potency at 1500 ug/rat expressed as rats ovulating by total no. of rats (9/10); format: functional
[4] = species: Rattus norvegicus; assay: Antiovulatory potency at 10 ug/rat expressed as rats ovulating by total no. of rats (5/6); format: functional
[5] = species: Rattus norvegicus; assay: Antiovulatory potency at 25 ug/rat expressed as rats ovulating by total no. of rats (7/8); format: functional
[6] = species: Rattus norvegicus; assay: Antiovulatory potency at 50 ug/rat expressed as rats ovulating by total no. of rats (0/6); format: functional
[7] = species: Rattus norvegicus; assay: Antiovulatory potency at 50 ug/rat expressed as rats ovulating by total no. of rats (5/5); format: functional
[8] = species: Rattus norvegicus; assay: Antiovulatory potency at 250 ug/rat expressed as rats ovulating by total no. of rats (5/6); format: functional
[9] = species: Rattus norvegicus; assay: Antiovulatory potency at 25 ug/rat expressed as rats ovulating by total no. of rats (2/4); format: functional
[10] = species: Rattus norvegicus; assay: Antiovulatory potency at 10 ug/rat expressed as rats ovulating by total no. of rats (0/5); format: functional
[11] = species: Rattus norvegicus; assay: Antiovulatory potency at 5 ug/rat expressed as rats ovulating by total no. of rats (1/8); format: functional
[12] = species: Rattus norvegicus; assay: Antiovulatory potency at 2.5 ug/rat expressed as rats ovulating by total no. of rats (0/5); format: functional
[13] = target: T1, Gonadotropin-releasing hormone receptor; assay: Affinity for rat Gonadotropin-releasing hormone receptor membrane evaluated using HEK293 cells transfected with rat Gonadotropin-releasing hormone receptor; format: cell-based
[14] = species: Rattus norvegicus; assay: Antiovulatory potency at 10 ug/rat expressed as rats ovulating by total no. of rats (4/5); format: functional
[15] = species: Rattus norvegicus; assay: Antiovulatory potency at 25 ug/rat expressed as rats ovulating by total no. of rats (3/8); format: functional
[16] = species: Rattus norvegicus; assay: Antiovulatory potency at 50 ug/rat expressed as rats ovulating by total no. of rats (0/3); format: functional
[17] = species: Rattus norvegicus; assay: Antiovulatory potency at 100 ug/rat expressed as rats ovulating by total no. of rats (2/6); format: functional
[18] = species: Rattus norvegicus; assay: Antiovulatory potency at 250 ug/rat expressed as rats ovulating by total no. of rats (3/6); format: functional
[19] = species: Rattus norvegicus; assay: Antiovulatory potency at 10 ug/rat expressed as rats ovulating by total no. of rats (0/10); format: functional
[20] = species: Rattus norvegicus; assay: Antiovulatory potency at 5 ug/rat expressed as rats ovulating by total no. of rats (4/10); format: functional

SMILES: CC(=O)N[C@@H]1CSSC[C@H]2NC(=O)[C@@H](CC(=O)NC[C@H](C(N)=O)NC(=O)[C@H]3CCCN3C(=O)[C@H](CCCN=C(N)N)NC(=O)[C@@H](CC(C)C)NC(=O)[C@H](Cc3ccc4ccccc4c3)NC2=O)NC(=O)[C@@H](Cc2c[nH]c3ccccc23)NC(=O)[C@H](Cc2ccc(Cl)cc2)NC1=O
Ki [1]: 5700 pM
Ovulating rats [2]: 7

SMILES: CC(C)C[C@H]1C(=O)N[C@@H](CCCN=C(N)N)C(=O)N2CCC[C@H]2C(=O)NCCC(=O)N2CC=C[C@H]2C(=O)N[C@H](Cc2ccc(Cl)cc2)C(=O)N[C@H](Cc2c[nH]c3ccccc23)C(=O)N[C@@H](CO)C(=O)N[C@@H](Cc2ccc(O)cc2)C(=O)N[C@H](Cc2c[nH]c3ccccc23)C(=O)N1C (cyclo([NMeL]RP[βAla][ΔPro][dPhe(4-Cl)][dW]SY[dW]))
Ovulating rats [3]: 9

SMILES: CC(=O)N[C@H](Cc1ccc2ccccc2c1)C(=O)N[C@H](Cc1ccc(Cl)cc1)C(=O)N[C@@H]1CSSC[C@@H](C(=O)N2CCC[C@H]2C(=O)N[C@H](C)C(N)=O)NC(=O)[C@H](CC(C)C)NC(=O)[C@@H](Cc2ccc3ccccc3c2)NC(=O)[C@H](CCCN=C(N)N)NC(=O)[C@H](C)NC1=O
Ovulating rats [7]: 5
Ovulating rats [8]: 5

SMILES: CC(=O)N1CC=C[C@H]1C(=O)N[C@H](Cc1ccc(F)cc1)C(=O)N[C@H](Cc1c[nH]c2ccccc12)C(=O)N[C@H]1CC(=O)NC[C@@H](C(N)=O)NC(=O)[C@@H]2CCCN2C(=O)[C@H](CCCN=C(N)N)NC(=O)[C@H](CC(C)C)NC(=O)[C@@H](Cc2ccc3ccccc3c2)NC(=O)[C@H](Cc2ccc(O)cc2)NC1=O (Ac-[ΔPro][dPhe(4-F)][dW]DY[d2Nal]LRP[Dap]-NH2; lactam 4-10)
Ovulating rats [19]: 0
Ovulating rats [20]: 4

Second part, led by results:

Ki [1]: 1100 pM
SMILES: CC(=O)N[C@@H]1CCC(=O)NCC(=O)NCCC[C@H]2NC(=O)[C@@H](CC(=O)NC[C@H](C(N)=O)NC(=O)[C@H]3CCCN3C(=O)[C@H](CCCN=C(N)N)NC(=O)[C@@H](CC(C)C)NC(=O)[C@@H](Cc3ccc4ccccc4c3)NC2=O)NC(=O)[C@@H](Cc2c[nH]c3ccccc23)NC(=O)[C@H](Cc2ccc(Cl)cc2)NC1=O
Ovulating rats [4]: 5
Ovulating rats [5]: 7
Ovulating rats [6]: 0

Ki [1]: 220 pM
SMILES: CC(=O)N[C@@H]1CCC(=O)N[C@H](C)C(=O)NCC[C@H]2NC(=O)[C@@H](CC(=O)NC[C@H](C(N)=O)NC(=O)[C@H]3CCCN3C(=O)[C@H](CCCN=C(N)N)NC(=O)[C@@H](CC(C)C)NC(=O)[C@@H](Cc3ccc4ccccc4c3)NC2=O)NC(=O)[C@@H](Cc2c[nH]c3ccccc23)NC(=O)[C@H](Cc2ccc(Cl)cc2)NC1=O
Ovulating rats [9]: 2
Ovulating rats [10]: 0

Ki [1]: 150 pM
SMILES: CC(=O)N[C@@H]1CC(=O)NCCC(=O)NCC[C@H]2NC(=O)[C@@H](CC(=O)NC[C@H](C(N)=O)NC(=O)[C@H]3CCCN3C(=O)[C@H](CCCN=C(N)N)NC(=O)[C@@H](CC(C)C)NC(=O)[C@@H](Cc3ccc4ccccc4c3)NC2=O)NC(=O)[C@@H](Cc2c[nH]c3ccccc23)NC(=O)[C@H](Cc2ccc(Cl)cc2)NC1=O
Ovulating rats [11]: 1
Ovulating rats [12]: 0

Ki [13]: 260 pM
SMILES: CC(=O)N[C@@H]1CCC(=O)NCCCC[C@H]2NC(=O)[C@@H](CC(=O)NC[C@H](C(N)=O)NC(=O)[C@H]3CCCN3C(=O)[C@H](CCCN=C(N)N)NC(=O)[C@@H](CC(C)C)NC(=O)[C@@H](Cc3ccc4ccccc4c3)NC2=O)NC(=O)[C@@H](Cc2c[nH]c3ccccc23)NC(=O)[C@H](Cc2ccc(Cl)cc2)NC1=O
Ovulating rats [14]: 4
Ovulating rats [15]: 3
Ovulating rats [16]: 0

Ki [1]: 1800 pM
SMILES: CC(=O)N[C@@H]1CCC(=O)NCCCC[C@@H]2NC(=O)[C@H](CC(C)C)NC(=O)[C@@H](Cc3ccc4ccccc4c3)NC(=O)[C@H](CCCN=C(N)N)NC(=O)[C@H](CC(=O)NC[C@H](C(N)=O)NC(=O)[C@@H]3CCCN3C2=O)NC(=O)[C@@H](Cc2cccnc2)NC(=O)[C@H](Cc2ccc(Cl)cc2)NC1=O
Ovulating rats [17]: 2
Ovulating rats [18]: 3
